From patent US20220218725A1, “METHODS AND MATERIALS FOR TREATING CANCER” (Mayo Foundation for Medical Education and Research, priority 2019, published 2022)
pIC50: −log10 of the molar value.

How the values were obtained:
BT-474 cells = assay: Cell viability, Annexin V/PI assay; format: cell-based; conditions: BT-474 (Breast cancer); 48 hours; KPT-330 0.1-1.0 μM, CS 1-3 mM, single agent or combination
Method: (§3) KPT-330 purchased from Selleckchem (cat no: S7252) was dissolved in DMSO while CS (Santa Cruz, Calif.S 2016-36-6), sodium salicylate (Sigma-Aldrich, cat no: S3007), acetyl salicylate (Sigma-Aldrich, cat no: CAS 50-78-2) was diluted in PBS. […] The concentration range of KPT-330 was 0.05-1.0 μM while CS was 1-3 mM were used for ex vivo treatment and incubation time ranged from 24 hours to 72 hours.
(§4) The viability assessment for cell lines and primary patients samples were conducted with the Annexin V/PI method.

[1] = test system: Lymphoplasmacytic lymphoma primary patient sample; assay: Viability of primary patient samples, Annexin V/PI assay; format: cell-based, human; conditions: Lymphoplasmacytic lymphoma with IgG monoclonal gammopathy; 48 h; KPT-330 0.05-0.5 μM, CS 1-3 mM
Excerpt: (§1) Primary patient samples were obtained. The mononuclear cells were obtained from bone marrow, spleen, peripheral blood and lymph nodes as follows. Freshly obtained tissue (lymph node, spleen, bone marrow) was placed in mesh screen and using a syringe plunger, the tissue was pressed into a petri dish. Samples were then rinsed through the screen using measured amounts of RPMI until all tissue has been pressed through. […] Subsequently the mononuclear cells were isolated via centrifugation in the presence of ficoll and this step was again repeated following washing the cells with RPMI media.
(§2) To isolate peripheral blood mononuclear cells (PBMCs), freshly obtained patient blood sample of patients were centrifuged in the present of ficoll and this step was repeated twice following washing the cells with PBS. Following isolating the mononuclear cells, the viability was assessed and ascertained proper viability above 80% prior to conduct respective experiments. Non-malignant cells were confirmed not to have a malignant condition by pathology review of the tissue.

[2] = test system: DLBCL primary patient samples; assay: as above; format: cell-based, human; conditions: 48 h, KPT-330 0.05-0.5 μM, CS 1-3 mM
Excerpt: as §1, §2

[3] = test system: CLL primary patient samples; assay: as above; format: cell-based, human; conditions: TP53 deleted, 48 h, KPT-330 0.05-0.5 μM, CS 1-3 mM
Excerpt: as §1, §2

[4] = test system: MM/plasma cell leukemia primary patient samples; assay: as above; format: cell-based, human; conditions: 48 h, KPT-330 0.05-0.5 μM, CS 1-3 mM
Excerpt: as §1, §2

[5] = test system: T-cell Lymphoblastic leukemia primary patient sample; assay: as above; format: cell-based, human; conditions: Relapsed T-cell Lymphoblastic leukemia; 48 h; KPT-330 0.05-0.5 μM, CS 1-3 mM
Excerpt: as §1, §2

[6] = test system: Peripheral T-cell lymphoma primary patient samples; assay: as above; format: cell-based, human; conditions: 48 h, KPT-330 0.05-0.5 μM, CS 1-3 mM
Excerpt: as §1, §2

[7] = test system: WM primary patient sample; assay: as above; format: cell-based, human; conditions: 48 h, KPT-330 0.05-0.5 μM, CS 1-3 mM
Excerpt: as §1, §2

JeKo-1 cells = assay: Mitotic index calculation; format: cell-based; conditions: 48 hours, light microscopy
Method: Following the incubation of respective time periods, cytospin slides were prepared and stained with Hema 3 staining on the many factors protocol. Subsequently the mitotic index was calculated by the number of mitoses evaluated in 10 high power fields (×400).

BT-20 cells = assay: Cell viability, Annexin V/PI assay; format: cell-based; conditions: BT-20 (Breast cancer); 48 hours; KPT-330 0.1-1.0 μM, CS 1-3 mM, single agent or combination
Method: as §3, §4

Hs 578T cells = assay: Cell viability, Annexin V/PI assay; format: cell-based; conditions: Hs 578T (Breast cancer); 48 hours; KPT-330 0.1-1.0 μM, CS 1-3 mM, single agent or combination
Method: as §3, §4

OCI-Ly1 cells = assay: Cell viability, Annexin V/PI assay (also IC50 and combination index)
Method: To assess apoptosis and cellular proliferation, all cell lines were treated with CRM 1 inhibitors (concentration ranging from 0.05-2 μM) and salicylates at concentrations ranging from (0.001-10 mM) for 48 hours before analysis was performed. DMSO was used to substitute the drug in controls.
After 48 hours incubation, cells were washed with Annexin buffer solution and stained with both propidium iodide (PI) and FITC-Annexin V (Life Technologies), and assayed on a BD Accuri flow cytometer (BD Biosciences). Apoptosis results were analyzed with BD CellQuest software. […]
Jeko-1 and OCI-Ly1 cell lines were used to assess the IC50. […] Relative IC50 was calculated as described elsewhere (see, e.g., Sebaugh et al., Pharmaceutical statistics 10:128-134 (2011)). The combination index was calculated as described elsewhere (see, e.g., Chou et al., Cancer Res 70:440-446 (2010)).

[8] = Double expresser transformed from CLL/SLL
[9] = Double hit, replaced from RCHOP, ASCT and BR
[10] = NOS, single agent or combination
[11] = Relapsed CLL: Ibrutinib and Idalalisib resistant
[12] = Relapsed CLL: Ibrutinib resistent
[13] = Kappa light chain myeloma/plasma cell leukemia with I(11; 14), standard risk
[14] = MM/plasma cell leukemia, Relapsed with high risk cytogenetics (sample of r32)
[15] = MM/plasma cell leukemia, Relapsed with high risk cytogenetics (sample of r33)
[16] = MM/plasma cell leukemia, Relapsed with high risk cytogenetics (sample of r34)
[17] = MM/plasma cell leukemia, Relapsed with high risk cytogenetics (sample of r38)
[18] = Relapsed Peripheral T-cell lymphoma (sample of r30)
[19] = Relapsed Peripheral T-cell lymphoma (sample of r31)

Row | Structure (SMILES) | % viability normalized for respective controls (BT-474 cells) | % viability normalized for respective controls [1] | % viability normalized for respective controls [2, 8] | % viability normalized for respective controls ([2]; Double expresser) | % viability normalized for respective controls ([2]; Double hit transformed from FL) | % viability normalized for respective controls [2, 9] | % viability normalized for respective controls [2, 10] | % viability normalized for respective controls [3, 11] | % viability normalized for respective controls [3, 12] | % viability normalized for respective controls [4, 13] | % viability normalized for respective controls [4, 14] | % viability normalized for respective controls [4, 15] | % viability normalized for respective controls [4, 16] | % viability normalized for respective controls [4, 17] | % viability normalized for respective controls [5] | % viability normalized for respective controls [6, 18] | % viability normalized for respective controls [6, 19] | % viability normalized for respective controls [7] | mitotic index (MI) (JeKo-1 cells) | % viability normalized for respective controls (BT-20 cells) | other results
1 | C[N+](C)(C)CCO.O=C([O-])c1ccccc1O [CS, choline salicylate] | 110% | 88% | 65% | 80% | 71% | 86% | 76% | 78% | 75% | 64% | 58% | 90% | 69% | 99% | 82% | 64% | 73% | 79% | 166 /10 HPF | 89% | % viability normalized for respective controls (Hs 578T cells): 87%; % viability normalized for respective controls (OCI-Ly1 cells; OCI-Ly1 (DLBCL), 48 hours, KPT-330 0.1-1.0 μM, CS 1-3 mM, single agent or combination): 101%
2 | O=C(/C=C\n1cnc(-c2cc(C(F)(F)F)cc(C(F)(F)F)c2)n1)NNc1cnccn1 [KPT-330, (Z)-3-[3-[3,5-bis (trifluoromethyl)phenyl]-1,2,4-triazol-1-yl]-N′-pyrazin-2-ylprop-2-enehydrazide] | 73% | 79% | 68% | 74% | 82% | 81% | 63% | 72% | 99% | 55% | 79% | 91% | 93% | 96% | 70% | 73% | 68% | 85% | 153 /10 HPF | 58% | % viability normalized for respective controls (Hs 578T cells): 73%; pIC50 (OCI-Ly1 cells; Homo sapiens, OCI-Ly1, 72 h): 5.74
